According to article PMC11203919, “Heat Stress and Microbial Stress Induced Defensive Phenol Accumulation in Medicinal Plant Sparganium stoloniferum” (International Journal of Molecular Sciences, 2024):

Target: T1, SsC4H (Sparganium stoloniferum, UniProt A0AAU8GF87)
T1 construct: gene C4H; pYeDP60 in yeast WAT11 culture, not purified
Test: substrate feeding of yeast culture, LC-MS/MS of p-coumaric acid
Assay type: cell-based
Details: 0.5 mM substrate, 16 °C, 12 h; yeast WAT11

T1 sequence (A0AAU8GF87 entry or part of it): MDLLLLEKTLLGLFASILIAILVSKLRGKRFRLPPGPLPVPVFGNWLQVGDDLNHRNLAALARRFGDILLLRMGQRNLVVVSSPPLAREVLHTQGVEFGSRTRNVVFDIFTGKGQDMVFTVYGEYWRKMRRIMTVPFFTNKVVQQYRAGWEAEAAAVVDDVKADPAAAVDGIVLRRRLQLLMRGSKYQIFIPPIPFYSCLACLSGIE

## O=C(O)/C=C/c1ccccc1 [trans-cinnamic acid]
  substrate feeding of yeast culture, LC-MS/MS of p-coumaric acid: Upon adding trans-cinnamic acid to the SsC4H-pYeDP60-WAT11 culture, hydroxylation occurred to produce p-coumaric acid
